Results as given in patent US20250144047A1, “PHARMACEUTICAL COMPOSITION FOR PREVENTING, AMELIORATING, OR TREATING CANCER CONTAINING 8-PARADOL” (KDBIO CORP., priority 2022, published 2025).

Assays:
[1] = test system: AGS cells; assay: Live/dead cell staining of AGS cells; type: cell-based, human; conditions: 24 hours
Procedure: (§1) Live/dead cells were stained using a live/dead cell staining kit (Thermo Fisher Scientific, Rockford, IL, USA). Specifically, apoptosis was induced by processing AGS cells (2×10^5 cells/well) as a sample for 24 hours. After staining the cells for 30 minutes using the staining kit, the cells were observed using a Leica DM IRB fluorescence microscope (Wetzlar, Germany). In addition, for the colony formation assay, AGS cells were cultured at a density of 500 cells/well and then processed with the sample. Then, the cells were stained with 0.5% crystal violet (Sigma-Aldrich, St. Louis, MO, USA) for 15 minutes […], and then the stained colonies were observed and quantified using ImageJ.

[2] = test system: AGS cells; assay: Hoechst33258 and PI staining; type: cell-based, human
Procedure: AGS cells (1×10^5 cells) were seeded and maintained for 24 hours. In order to evaluate the percentage of apoptotic cells, Hoechst33258 or PI (Thermo Fisher Scientific, Rockford, IL, USA) was added to the AGS cells processed with the sample. After 30 minutes, the cells were observed using the fluorescence microscope (Leica DM IRB).

[3] = test system: AGS cells; assay: Colony formation assay of AGS cells; type: cell-based, human; conditions: 5-FU positive control
Procedure: as §1

[4] = design: species or system mice; conditions: mouse, in vivo, po
Procedure: (§2) Male nude mice (CAnN.Cg-Foxn1-nu, 4 weeks old, 20 g to 22 g) were purchased from OrientBio (Seongnam, Republic of Korea). The mice were placed in a chamber with conditions maintained at 23° C. and 50% humidity with a period of 12 hours of light and 12 hours of darkness. All animal experiments were conducted according to the National Institutes of Health's Laboratory Animal Care and Use Guidelines (NIH Publications No. 8023, revised 1996) and the Kyung Hee University's Animal Care and Use Guidelines ([…]-441, approval data: Sep. 28, 2021). […] The control group was administered with only 0.9% of general saline during this period. Body weights and tumor volumes of the mice were measured daily in all mice during the study period. All mice were euthanized after the end of the experiments. Blood, liver, spleen, kidney, and tumor tissues were extracted and weighed. In order to obtain the protein of tumor tissue, a portion of the tissue was processed with RIPA buffer containing a protease inhibitor cocktail. Then, the expression degree of a specific protein (determined by Western blot) was determined.

[5] = test system: AGS cells; assay: Western blot analysis of AGS cells; type: cell-based, human
Procedure: Mitochondria of AGS cells were extracted using an extraction kit (Abcam, Cambridge, MA, USA). According to the instructions for using the kit, the AGS cells were washed with cold PBS and homogenized in a cold glass vortex mixer. For mitochondrial-rich supernatants, the homogenates were centrifuged at 1000 rpm for 10 minutes at 4° C. For whole protein extraction, AGS cells were processed with samples at various concentrations for 24 hours. The cells were dissolved using Pierce™ RIPA buffer (Thermo Fisher Scientific, Rockford, IL, USA) together with protease inhibitor cocktail (GenDEPOT, TX, USA). The cell-dissolved solution formed in the above manner was centrifuged at 12,000 rpm for 20 minutes. The protein was loaded into a 10% SDS-PAGE gel using a protein gel electrophoresis chamber system and transferred to a PVDF membrane (Thermo Fisher Scientific, Rockford, IL, USA). A PBST solution containing 5% skim milk was used to block the membrane at 25° C. for 1 hour. Then, the membrane was incubated overnight at 4° C. with primary antibodies. Finally, the membrane was incubated with the secondary antibodies at 25° C. for 1 hour, and a protein band was detected using West-Q Pico ECL Solution (GenDEPOT, TX, USA). The results were quantified using ImageJ software.

[6] = test system: AGS xenografts; assay: Tumor size in AGS-xenograft mice; type: in vivo
Procedure: as §2

[7] = test system: AGS xenograft tumor tissue; assay: IHC staining of tumor tissue; type: in vivo; conditions: tumor tissue of administered mice
Procedure: The tumor tissue was fixed with 10% formalin and embedded with paraffin. Immunohistochemical (IHC) staining was performed using a mouse and rabbit-specific HRP/DAB (ABC) detection IHC kit (Abcam, Cambridge, MA, USA). The tissue was observed through an optical microscope, and the presence of a specific protein in the tumor tissue was determined to be the presence of a brown yellow color. The results were evaluated using ImageJ software.

[8] = test system: AGS cells; assay: LC3 immunofluorescence staining; type: cell-based, human
Procedure: AGS cells (1×10^5 cells) were cultured on 6-well plates and processed with samples for 24 hours. For cell fixation and permeation, 4% paraformaldehyde and 0.1% Triton X-100 were used, respectively. After blocking with 2% BSA for 1 hour, the cells were incubated with primary antibodies on LC3 for 3 hours at 25° C. Then, the cells were incubated with fluorescein isothiocyanate (FITC)-conjugated secondary antibodies (Abcam, Cambridge, MA, USA) for 30 minutes. Finally, fluorescence was captured and analyzed using the Leica fluorescence microscope and ImageJ software.

[9] = test system: RAW 264.7 cells; type: cell-based
Procedure: (§3) AGS cells were grown in RPMI medium containing 10% FBS and 1% PS. HEK293 and RAW264.7 cells were grown in DMEM medium containing 10% FBS and 1% PS under conditions of 37° C., 5% CO2 and 95% air.
(§4) In order to evaluate toxicity to each cell, the sample was incubated in each cell (1×10^5 cells/well) cultured in the above manner for 24 hours, and then cytotoxicity to each cell was examined by using the MTT assay.

[10] = test system: HEK293 cells; type: cell-based, human
Procedure: as §3, §4

[11] = test system: AGS cells; assay: ATP fluorescence assay in AGS cells; type: cell-based, human
Source text: The ATP degree of the sample-processed AGS cells were detected according to the manufacturer's instructions by using an ATP fluorescence assay kit (Biovision, Milpitas, CA, USA).

[12] = AGS cells, compared with control group
[13] = 8-paradol and CQ in combination, compared to 8-paradol solely
[14] = 8-paradol-H 8 mg/kg oral 16 days

With `CCCCCCCCCC(=O)CCc1ccc(O)c(OC)c1` [Purified Compound 3, 8-paradol] the “cytotoxicity on AGS cells by cell morphology and live/dead cell staining” value [1] was “strong cytotoxicity”, the “number of apoptotic cells (Hoechst and PI staining)” value ([2]; 8-paradol and CQ together, compared to 8-paradol solely) was “significantly reduced” and the “fragmentation of nuclei and fluorescence of the condensate (Hoechst staining)” value ([2]; AGS cells) was “became stronger in a dose-dependent manner”. For the same molecule, the “number of killed cells (PI staining)” value [2, 12] was “increased the number of killed cells”, the “colony formation ability compared with 5-FU-processed AGS cells” value [3] was “significantly inhibited” and the “liver and kidney indices versus Con-T group” value [4] was “did not exhibit a significant difference”. The body weight ([4]; 8 mg/kg) was 19.5 g, the Bcl-2 expression [5, 13] was “significantly increased” and the “expression degree of Bax, Cytochrome c and caspase-3/-9” value [5, 13] was “significantly decreased”. The “conversion to LC3b and degradation of p62” value ([5]; 8-paradol combined with CQ 30 μM, compared to 8-paradol solely) was “more strongly induces”, the “expression of TOM20 and TIM23” value ([5]; 8-paradol in combination with CQ, compared to 8-paradol solely) was “increased” and the “amount of Bax, Cytochrome C and Cleaved-caspase-3/-9” value ([5]; AGS cells) was “increased”. The “amount of Bcl-2” value ([5]; AGS cells) was “decreased”, the “expression of p62” value ([5]; AGS cells) was “degraded p62 in a dose-dependent manner” and the “protein expression of Pink1 and Parkin” value ([5]; AGS cells) was “significantly increased”. For the same molecule, the “protein expression of TOM20 and TIM23” value [5, 12] was “decreased”, the “conversion from LC3a to LC3b” value ([5]; AGS cells, dose- and time-dependent) was “promoted” and the “Parkin concentration of the mitochondrial fraction” value ([5]; AGS cells, mitochondrial fraction) was “increased”. For the same molecule, the “size and weight of the tumor compared to Con-T” value [6, 14] was “significantly reduced”, the “size, weight, and volume of the tumor compared to the 5-FU group” value [6, 14] was “further reduced” and the “size of the tumor compared to Con-T” value ([6]; 8-paradol-M 4 mg/kg oral 16 days) was “significantly reduced”. For the same molecule, the “density of LC3 and caspase-3 in tumor tissue” value [7] was “increased”, the “endogenous LC3 spots” value [8] was “increase” and the “cytotoxicity to normal cells RAW 264.7” value [9] was “did not express significant cytotoxicity”. The “cytotoxicity to normal cells HEK293” value [10] was “did not express significant cytotoxicity”, the “ATP loss induced by 8-paradol” value ([11]; 8-paradol with CQ (inhibiting mitophagy)) was “reduced” and the “ATP concentration in AGS cells” value ([11]; AGS cells) was “reduced”.
